Assay: particle size (dv10) of darunavir after drying
Format: physicochemical
Conditions: 10% (volume %) of particles smaller than value
Method: The active ingredient darunavir ethanolate used in the marketed 300 mg tablet formulation has been manufactured by a process which includes a drying process in which the particulate darunavir is dried on trays, i.e. a static process. However, in order to provide a higher manufacturing throughput and improved safety for the operators, it is desirable to replace the static drying with a tumble drying operation involving drying in a revolving container. Such a change in the drying operation however has a significant effect on the physical characteristics of the particles of the darunavir. In this case the tumble drying of the particles results in a reduction in the dv10 value (dv10 means that 10% (volume %) of the particles has a diameter smaller than the specified value) from approximately 80 microns to approximately 35 microns. […] It will be appreciated that good blend flow and good tablet properties such as weight uniformity and appropriate visual appearance, without any defects, are essential in a large-scale industrial manufacturing process to maximise throughput and ensure consistent and efficient processing of the material.

For `CC(C)CN(C[C@@H](O)[C@H](Cc1ccccc1)NC(=O)O[C@H]1CO[C@H]2OCC[C@H]21)S(=O)(=O)c1ccc(N)cc1` [darunavir, [(1S,2R)-3-[[(4-aminophenyl)sulfonyl](2-methylpropyl)amino]-2-hydroxy-1-(phenylmethyl)propyl]-carbamic acid (3R,3aS,6aR)hexahydrofuro[2,3-b]furan-3-yl ester], the dv10 value (after tumble drying) was “approximately 35 microns” and the dv10 value (static drying on trays) was “approximately 80 microns”.

Source: patent US20100189783A1, “RELATING TO ANTI-HIV TABLET FORMULATIONS” (priority 2007, published 2010)
